Laboratory results from patent US9907860B2, “Conjugated molecules comprising a peptide derived from the CD4 receptor coupled to an anionic polypeptide for the treatment of AIDS” (INSTITUT PASTEUR, priority 2014, dated 2018).

Key:
[1] = Cytotoxic activity, WST-1 cell proliferation assay; format: cell-based; settings: human
Protocol: Cytotoxicity was determined using the water-soluble tetrazolium-1 (WST-1) cell proliferation assay, which is based on the cleavage of the tetrazolium salt WST-1 to a formazan dye by cellular dehydrogenases. Because this bioreduction is dependent on the glycolytic production of NAD(P)H in viable cells, the amount of formazan dye formed is correlated directly to the number of viable cells in a culture. Quantification is performed by measuring absorbance at 450 nm in a multiwell plate reader. An amount of 10^4 cells was plated per well in a 96-well plate, and a serial dilution of compound was added. Forty eight hours later, cell proliferation reagent was added and cell viability was measured compared to untreated control cultures. Cell viability was plotted against the compound concentration, and nonlinear regression analysis was performed to evaluate the 50% cytotoxic concentration (CC50).
The miniCD4 conjugates were then evaluated for their cytotoxic activity according to the protocol described above. All cytotoxic results are reported in the table below in the form of CC50 values (nM).

[2] = tested on: SHIV162p3 viral strain (B-R5); experiment: Antiviral activity on TZM-bl cells, SHIV162p3 strain; format: cell-based; settings: luciferase, 48 h, clade-tropism B-R5
Protocol: (§1) The antiviral activity of the tested compounds was determined by pre-incubating 10^4 TZM-bl cells/well in a 96-well plate for 30 min at 37° C. and 5% CO2 with or without a serial dilution of the compound. Next, 200 TCID50 of viruses were added to each well and cultures were incubated for 48 h before luciferase activity was quantified. Each compound was tested in triplicate in a single experiment. Antiviral activity was expressed as the percentage of viral inhibition compared to the untreated control and plotted against the compound concentration. Next, non-linear regression analysis was used to calculate the 50% effective concentration (EC50).
(§2) The miniCD4 conjugates were then evaluated for their antiviral activity on TZM-bl cells that express Luciferase under the control of the HIV LTR (collaboration G. Vanham, Anvers) according to the protocol described above. All antiviral results are reported in the table below in the form of EC50 values (nM).

[3] = tested on: MP568 (CRF02) viral strain (AG-R5); experiment: microbe, parasite or virus in culture; format: cell-based, HIV; settings: Human immunodeficiency virus 1, TZM-bl, 48 h, read-out: EC50, viral strain MP568 (CRF02)
Protocol: as §1, §2

[4] = tested on: p246F10 viral strain (C-R5); experiment: microbe, parasite or virus in culture; format: cell-based, HIV; settings: Human immunodeficiency virus 1, TZM-bl, 48 h, read-out: EC50, viral strain p246F10
Protocol: as §1, §2

[5] = tested on: VI824 viral strain (D-R5); experiment: microbe, parasite or virus in culture; format: cell-based, HIV; settings: Human immunodeficiency virus 1, TZM-bl, 48 h, read-out: EC50, viral strain VI824
Protocol: as §1, §2

[6] = tested on: VI829 viral strain (C-R5); experiment: microbe, parasite or virus in culture; format: cell-based, HIV; settings: Human immunodeficiency virus 1; TZM-bl cells, luciferase, 48 h; clade-tropism C-R5
Protocol: as §1, §2

IIIB viral strain (B-X4) = experiment: microbe, parasite or virus in culture; format: cell-based, HIV; settings: Human immunodeficiency virus 1, IIIB; TZM-bl cells, luciferase, 48 h; clade-tropism B-X4
Protocol: as §1, §2

[7] = tested on: SF162 viral strain (B-R5); experiment: microbe, parasite or virus in culture; format: cell-based, HIV; settings: Human immunodeficiency virus 1; TZM-bl cells, luciferase, 48 h; clade-tropism B-R5
Protocol: as §1, §2

[8] = tested on: Ca10-3 (CRF01) viral strain (AE-X4); experiment: microbe, parasite or virus in culture; format: cell-based, HIV; settings: Human immunodeficiency virus 1, TZM-bl, 48 h, read-out: EC50, viral strain Ca10-3 (CRF01)
Protocol: as §1, §2

[9] = tested on: pREJO.c/2864 cl2 viral strain (B-R5); experiment: microbe, parasite or virus in culture; format: cell-based, HIV; settings: Human immunodeficiency virus 1, TZM-bl, 48 h, read-out: EC50, viral strain pREJO.c/2864 cl2
Protocol: as §1, §2

Bal viral strain (B-R5) = experiment: microbe, parasite or virus in culture; format: cell-based, HIV; settings: Human immunodeficiency virus 1, BAL; TZM-bl cells, luciferase, 48 h; clade-tropism B-R5
Protocol: as §1, §2

[10] = tested on: VI1888 (CRF01) viral strain (AE-R5); experiment: microbe, parasite or virus in culture; format: cell-based, HIV; settings: Human immunodeficiency virus 1, TZM-bl, 48 h, read-out: EC50, viral strain VI1888 (CRF01)
Protocol: as §1, §2

[11] = tested on: VI820 viral strain (A-X4R5); experiment: microbe, parasite or virus in culture; format: cell-based, HIV; settings: Human immunodeficiency virus 1, TZM-bl, 48 h, read-out: EC50, viral strain VI820
Protocol: as §1, §2

MN viral strain (B-X4) = experiment: microbe, parasite or virus in culture; format: cell-based, HIV; settings: Human immunodeficiency virus 1; TZM-bl cells, luciferase, 48 h; clade-tropism B-X4
Protocol: as §1, §2

With `Cc1cc(C)c(Nc2ccnc(Nc3ccc(C#N)cc3)n2)c(C)c1` [Dapivirine (TMC120), Dapivirine] the CC50 at 48 h [1] was 2520 nM, the EC50 [2] was > 1000 nM and the EC50 [3] was 1.1 nM. The EC50 [4] was 1.4 nM, the EC50 [5] was 1.2 nM and the EC50 [6] was 1.3 nM. For the same molecule, the EC50 (IIIB viral strain (B-X4)) was 0.84 nM, the EC50 [7] was 1.3 nM and the EC50 [8] was 1.3 nM. It also gave an EC50 [9] of 1.6 nM, an EC50 (Bal viral strain (B-R5)) of 1.65 nM and an EC50 [10] of 2.1 nM. It also gave an EC50 [11] of 1.95 nM and an EC50 (MN viral strain (B-X4)) of 1.5 nM.
